Laboratory results as given in patent publication US20110071075A1, “PROMOTER FOR BICARBONATE SECRETION IN GASTROINTESTINAL TRACT” (priority 2008, published 2011).
“Also recorded” adds a separate entry of the source. *1 amine or outer side, *2 acyl side, *3 side chain or, on linkers, in order; H or OH if unused. Where no end group is shown, it is not given here. [ ]: non-standard residue; d: D form. γGlu = O=C(O)[C@H](CCC(=O)[*:2])N[*:1]

What was measured:
gastric mucosal D cells = experiment: Somatostatin secretion of cultured fractionated gastric mucosal D cells (somatostatin ELISA); assay type: cell-based, male SD rat; conditions: 90 minutes culture
Protocol: The abdomen of each male SD rat was opened in the midline under anesthesia to remove the stomach. The stomach was ligated at the cardiac region and at the junction between the gastric body and the pylorus, and the pyloric region was excised. After that, the stomach was everted so that the luminal side is exposed outside. To the inside of the stomach, Buffer A containing 2.5 mg/ml protease (Sigma P6911, Protease, From Streptomyces griseus, 5.5 unit/mg solid) was injected to prepare a balloon. The balloon was shaken at 37° C. for 30 minutes in Buffer A for 30 minutes and in Buffer B for 30 minutes×three times. After that, the balloon was stirred three times in Buffer B containing 0.5 mg/ml DNase, the detached cells were centrifuged and then suspended in Buffer C. After the cell suspension had been filtered with a filter, cells were fractionated and collected with an elutriator manufactured by Hitachi, Ltd.
Repeated fractionation was conducted using an elutriator in accordance with Example 3 to collect D cells with high purity. After centrifugation, the cells were suspended in a cell culture medium (D-MEM/F-12 containing 10% FBS) and cultured in a CO2 incubator ([…]+5% CO2, 37° C.) (6×10^5 cells/250 μL/well). After 2-day culture, to the D cells washed with PBS was added each of CaSR agonists (20 μM cinacalcet (CCT), 20 μM γ-EVG, 10 mM phenylalanine (Phe), and 10 mM histidine (His)) mixed in a culture buffer (122 mM NaCl, 5 mM KCl, 25 mM NaHCO3, 1.3 mM MgSO4, 2 mM CaCl2, 15 mM HEPES, and 20 mM glucose, pH 7.4), and the cells were cultured for 90 minutes. After that, a culture supernatant was collected, filtered with a filter, and then measured for its somatostatin concentration with a somatostatin ELISA kit (manufactured by Phoenix, Calif.).
The somatostatin secretion was measured in accordance with the method of Example 4. After 2-day culture, to the D cells washed with PBS was added a CaSR agonist (20 μM γ-EVG), sodium glutamate (60 mM MSG), or a mixed solution thereof, mixed in a culture buffer (122 mM NaCl, 5 mM KCl, 25 mM NaHCO3, 1.3 mM MgSO4, 2 mM CaCl2, 15 mM HEPES, and 20 mM glucose, pH 7.4), and the cells were cultured for 90 minutes. After that, the culture supernatant was collected, filtered with a filter, and then the somatostatin concentration was measured by a somatostatin ELISA kit (Phoenix, Calif.).

stomach = experiment: Bicarbonate secretion in the stomach of anesthetized rats (ex-vivo chamber, pH-stat method); parameters: species or system male SD rats; conditions: 10 mg/kg administered into the gastric lumen; omeprazole 60 mg/kg i.p. to inhibit acid secretion
Protocol: (§1) The bicarbonate secretion was evaluated in accordance with the methods of Aihara et al. (Aihara, E. et al. 2005. J. Pharmacol. Exp. Ther. 315: 423-432) and Kagawa et al. (Kagawa, S. et al. 2003. Digestive Diseases and Sciences 48: 1850-1856).
The bicarbonate secretion in the stomach was measured as described below. The abdomen of each of male SD rats was opened in the midline under anesthesia with urethane (1.25 g/kg/5 ml, intraperitoneal administration) to expose the stomach. The stomach was left to stand still in an ex-vivo chamber (Tamura Seisakusho; 3.1 cm^2) and perfused with physiological saline saturated with 100% O2 gas. In order to inhibit acid secretion, 60 mg/kg omeprazole was intraperitoneally administered. The bicarbonate secretion was continuously measured by dropping 2 mM HCl to a perfusate until an end point of pH 7.0 by employing a pH-stat method (TOA, AUT-501).
(§2) A drug was administered into the gastric or duodenal lumen after the bicarbonate secretion at the baseline had been measured for 30 minutes, and the bicarbonate secretion amount was measured every 10 minutes.

NSAID-induced enteritis = experiment: NSAID (loxoprofen)-induced enteritis, damaged area in the small intestine; assay type: in vivo, rats; conditions: 30 minutes before loxoprofen 60 mg/kg oral, 24 hours
Protocol: To non-fasting rats, distilled water for injection containing cinacalcet (1, 3, 10, and 100 mg/kg) or γ-EVG (100 mg/kg), or distilled water for injection (control) was orally administered. After 30 minutes, loxoprofen (60 mg/kg) was orally administered, and the rats were left to stand for 24 hours. 1 ml of 1% (w/w) Evans Blue dye was intravenously administered, and after 30 minutes, the rats were euthanized under deep ether anesthesia. The small intestine (from the duodenum to the ileum) of each of the rats was removed, then immersed in 2% formalin for 10 minutes so that the small intestine might be fixed from the serosal side, and incised from the opposite side of the mesentery, and the damaged area in the small intestine (mm^2) was measured with a dissecting microscope of 10 times power. The t-test or Dunnett's test was used for a statistical test and p<0.05 was considered significant.

duodenum = experiment: Bicarbonate secretion in the duodenum loop of anesthetized rats (pH-stat method); assay type: in vivo, male SD rats
Protocol: as §1
As for the bicarbonate secretion in the duodenum, the abdomen of each of male SD rats was opened under anesthesia, and a duodenum loop having a length of 1.7 cm from the pyloric ring of the stomach was prepared. The lumen of the loop was perfused with physiological saline saturated with 100% O2 gas (flow rate: 1 ml/min)
as §2
The abdomens of male SD rats were opened under anesthesia, and a duodenum loop having a length of 1.7 cm from the pyloric ring of the stomach was prepared. The lumen of the loop was perfused with physiological saline saturated with 100% O2 gas (flow rate: 1 ml/min).
After the bicarbonate secretion at the baseline had been measured for 30 minutes, distilled water for injection containing γ-EVG (100 mg/kg) or distilled water for injection (normal) was administered into the duodenal lumen, and the bicarbonate secretion amount was measured every 10 minutes.

[1] = test system: histamine-induced gastric acid secretion; experiment: Histamine-induced gastric acid secretion in the removed, perfused stomach (pH-stat method); parameters: species or system male ddY mice; conditions: for histamine-induced gastric acid secretion: 100 μM histamine
Protocol: A model prepared in accordance with the method reported by Horie et al. (British Journal of Pharmacology 1994; 112: 87-92) was used as a model for histamine-induced gastric acid secretion. That is, 6-week-old male ddY mice were fasted for 18 hours, and the stomach was removed from each of the mice under anesthesia with urethane (1.25 g/kg/10 ml, intraperitoneal administration). A polyethylene cannula was inserted at each of the pyloric and esophageal sides of the stomach, and the stomach was left to stand still in an organ bath filled with a buffer (118.1 mM NaCl, 4.8 mM KCl, 1.0 mM KH2PO4, 16.0 mM Na2HPO4, 1.2 mM MgSO4, 0.65 mM CaCl2, and 31.6 mM glucose, saturated with 95% O2/5% CO2 gas, 37° C.). The intragastric pressure was kept at 15 cmH2O, and the lumen of the stomach was perfused with a buffer (135.8 mM NaCl, 4.8 mM KCl, 1.2 mM MgSO4, 1.3 mM CaCl2, and 31.6 mM glucose, pH 5.4, saturated with 95% O2/5% CO2 gas, 37° C.) at a flow rate of 1 ml/min
The acid secretion amount was continuously measured by dropping 10 mM NaOH to a perfusate until an end point of pH 5.4 by employing a pH-stat method (TOA, AUT-501). The intragastric acid secretion amount during no stimulation was measured for 30 minutes, and then the remove stomach left to stand still in the organ bath was treated with 100 μM histamine and cinacalcet (1.26, 12.6, and 126 μM). The gastric acid secretion amount was titrated for up to 90 minutes. The Dunnett's test was used as a statistical test for an effect of cinacalcet.
The gastric acid secretion was measured in accordance with the method of Example 2.

With `N[C@@H](Cc1c[nH]cn1)C(=O)O` [His, histidine] as the compound, how does the somatostatin secretion (gastric mucosal D cells; 10 mM) read?
The somatostatin secretion was “remarkably promoted”.

With `N[C@@H](CCC(=O)[O-])C(=O)[O-].[Na+].[Na+]` [MSG, sodium glutamate] as the compound, how does the somatostatin secretion (gastric mucosal D cells; 60 mM MSG) read?
The somatostatin secretion was “remarkably inhibited”.

With `N[C@@H](Cc1ccccc1)C(=O)O` [Phe, phenylalanine] as the compound, how does the somatostatin secretion (gastric mucosal D cells; 10 mM) read?
Its somatostatin secretion is “remarkably promoted”.

For `C[C@@H](NCCCc1cccc(C(F)(F)F)c1)c1cccc2ccccc12.Cl` [cinacalcet, (R)—N-(3-(3-trifluoromethylphenyl)propyl)-1-(1-naphthyl)ethylamine hydrochloride], which “bicarbonate secretion in the stomach” value (stomach) is on record?
Its value is “promoted”.

What about the “damaged area in the small intestine” value (NSAID-induced enteritis; 1, 3, 10 and 100 mg/kg oral) of the same compound?
The value was “reduced the damaged area dose-dependently”.

And the “bicarbonate secretion in the duodenum” value (duodenum; 10 mg/kg administered into the duodenal lumen)?
Its value is “promoted”.

What about the somatostatin secretion (gastric mucosal D cells; 20 μM) of the same compound?
Its somatostatin secretion is “remarkably promoted”.

What about the “histamine-induced gastric acid secretion” value ([1]; 12.6 μM cinacalcet) of the same compound?
Its value is “inhibited”.

What about the “histamine-induced gastric acid secretion” value ([1]; cinacalcet 1.26, 12.6 and 126 μM) of the same compound?
The value was “inhibited histamine-induced gastric acid secretion dose-dependently”.

And the “histamine-induced gastric acid secretion” value ([1]; concentration of 126 μM)?
Its value is “completely inhibited”.

Which gastric acid secretion ([1]; 100 μM histamine alone) does the source give for `NCCc1c[nH]cn1` [histamine] here?
Its gastric acid secretion is “promoted”.

And the acid secretion amount ([1]; 100 μM histamine stimulation, 0.5 to 0.8 nEq/10 min during no stimulation)?
The acid secretion amount was “about 3.2 nEq/10 min”.

With [γGlu]-Val-Gly [γ-EVG] as the compound, how does the “damaged area in the small intestine” value (NSAID-induced enteritis; 100 mg/kg oral) read?
Its value is “reduced the damaged area”.

And the “bicarbonate secretion in the duodenum” value (duodenum; 100 mg/kg administered into the duodenal lumen)?
Its value is “promoted”.

And the somatostatin secretion (gastric mucosal D cells; 20 μM)?
Its somatostatin secretion is “remarkably promoted; also recorded: markedly promoted”.
